Patent US20090030086A1, “ANTIMICROBIAL AGENTS” (priority 2005, published 2009)
≈ marks a conversion by molar mass, not a printed value. Where two headings read alike, the source gives them in different places. Blank lines part the entries; values can stand above or below the compound they belong to.

Columns and labels:
[1] = tested on: S. aureus ATCC 29213; experiment: MBC assay; format: cell-based, Staphylococcus aureus
Experimental: (§1) The staphylococci and enterococci were cultured and maintained on Mueller-Hinton Medium (agar and broth) at pH 7.2; they were incubated aerobically at 37° C. for 24 hours.
(§2) This assay, normally carried out after an MIC assay, determines the minimum concentration of a compound that is lethal to the micro-organism being tested.
(§3) These samples were then individually sub-cultured on non-selective agar medium, under the incubation conditions described above. Following incubation they were examined visually for bacterial growth.
(§4) The following experiments all used S. aureus ATCC 29213 as the test organism. MIC, MBC and DDA assays, as described above, were carried out using a range of different benzoquinones and hydroquinones. Supplemented DDA assays, in the presence of salt, lipid and blood, were also conducted.

[2] = tested on: S. aureus ATCC 29213; experiment: Supplemented disc diffusion assay; format: cell-based, Staphylococcus aureus; details: for zone of inhibition at 200 µg/disc: Staphylococcus aureus, ATCC29213, 24 h
Experimental: as §1
(§5) A sterile paper disc was impregnated with a sample of the test compound and a minimum of 30 minutes allowed for the solvents to evaporate as far as possible. The disc was then placed on an agar plate onto which the test micro-organism had been inoculated. The plate was then incubated under the conditions described above, following which it was examined visually for signs of bacterial growth. […] The diameter of this zone of “inhibition” was measured using a ProtoCOL™ automated zone sizer (Synbiosis, Cambridge, UK).
(§6) Performance under these conditions can provide a more reliable indication of activity on topical application. For assays conducted using S. aureus strains, the supplements were defibrinated horse blood (5% v/v), lipid (Tween™ 80 at 1% v/v) and sodium chloride (100 mM). For those using Propionibacterium spp. strains, the supplements were lipid (Tween™ 80 at 1% v/v) and sodium chloride (100 mM).
as §4
(§7) For most DDA assays, 200 μg of each compound was loaded onto each disc.

[3] = tested on: P. acnes NCTC 737; experiment: MIC assay; format: cell-based, Propionibacterium acnes
Experimental: 2. Propionibacterium spp.—the principal propionibacterial strain used in these studies was Propionibacterium acnes NCTC 737.
(§8) The Propionibacterium spp organisms were cultured and maintained on Wilkins-Chalgren Anaerobe Medium (agar and broth) at pH 6.0; cultures were incubated anaerobically at 37° C. for 72 hours.
(§9) This is a standard international method for quantitatively assessing the antimicrobial activity of a compound in a liquid medium. The method used a 96-well microtitre plate, capable of holding about 200 μl of liquid per well. […] The culture media were as described above for the relevant test organisms.
(§10) The wells were inoculated with a liquid suspension of freshly grown micro-organism and incubated under the conditions described above. After incubation, the microtitre plate was examined visually (with the aid of a light box) for cloudiness in each well, which would indicate microbial growth. The MIC value was recorded as the lowest concentration of test compound required to inhibit microbial growth, i.e., the lowest concentration for which the liquid in the well remained clear.
(§11) The assays were conducted in duplicate and included both negative (culture medium only) and positive (culture medium, diluting solvent and inoculum) controls.
(§12) MIC, MBC and DDA assays, as described above, were carried out using a range of different benzoquinones and hydroquinones. Supplemented DDA assays, in the presence of salt and lipid, were also conducted.

[4] = tested on: S. aureus ATCC 29213; experiment: Disc diffusion assay (DDA); format: cell-based, Staphylococcus aureus; details: for zone of inhibition at 200 µg/disc: Staphylococcus aureus
Experimental: as §1, §5
(§13) The area of the zone of inhibition was calculated from the measured zone diameter (D) using the formula π(D/2)^2.
as §7

[5] = tested on: P. acnes NCTC 737; experiment: MBC assay; format: cell-based, Propionibacterium acnes
Experimental: as §8, §2, §3, §12

[6] = tested on: P. acnes NCTC 737; experiment: Supplemented disc diffusion assay; format: cell-based, Propionibacterium acnes; details: for zone of inhibition at 200 µg/disc: Cutibacterium acnes, NCTC737, 72 h
Experimental: as §8, §5, §6, §12, §7

[7] = tested on: P. acnes NCTC 737; experiment: Disc diffusion assay (DDA); format: cell-based, Propionibacterium acnes; details: for zone of inhibition at 200 µg/disc: Cutibacterium acnes
Experimental: as §8, §5, §13, §7

[8] = tested on: S. aureus ATCC 29213; experiment: MIC assay; format: cell-based, Staphylococcus aureus
Experimental: 1. Staphylococcus aureus—the principal staphylococcal test micro-organism used in these studies was Staphylococcus aureus ATCC 29213. This strain is the one recommended for QC/QA purposes in Minimum Inhibitory Concentration (MIC) assays by the US Clinical and Laboratory Standards Institute (formerly the NCCLS), an FDA-recognised body.
as §1, §9, §10, §11, §4

[9] = S. aureus ATCC 29213, Tween 80 at 1% v/v, 200 μg per disc (thymoquinone 50 μg, 2,6-dimethoxy-p-benzoquinone 100 μg)
[10] = S. aureus ATCC 29213, defibrinated horse blood 5% v/v, 200 μg per disc (thymoquinone 50 μg, 2,6-dimethoxy-p-benzoquinone 100 μg)
[11] = S. aureus ATCC 29213, sodium chloride 100 mM, 200 μg per disc (thymoquinone 50 μg, 2,6-dimethoxy-p-benzoquinone 100 μg)
[12] = P. acnes NCTC 737, Wilkins-Chalgren broth pH 6.0, anaerobic, 37° C., 72 hours
[13] = S. aureus ATCC 29213, unsupplemented agar, 200 μg per disc (thymoquinone 50 μg, 2,6-dimethoxy-p-benzoquinone 100 μg)
[14] = P. acnes NCTC 737, Tween 80 at 1% v/v, 200 μg per disc (2,6-dimethoxy-p-benzoquinone 100 μg)
[15] = P. acnes NCTC 737, sodium chloride 100 mM, 200 μg per disc (2,6-dimethoxy-p-benzoquinone 100 μg)
[16] = P. acnes NCTC 737, unsupplemented agar, 200 μg per disc (2,6-dimethoxy-p-benzoquinone 100 μg)
[17] = S. aureus ATCC 29213, Mueller-Hinton broth pH 7.2, aerobic, 37° C., 24 hours

Compound: Oc1cc(Cl)c(O)cc1Cl [2,5-dichloro-p-hydroquinone]
- MBC [1]: 15.6 µg/mL (≈ 87.1 µM)
- MIC/MBC ratio [1]: 1
- DDA + lipid [2, 9]: 15.63 mm
- DDA + blood [2, 10]: 13.44 mm
- DDA + salt [2, 11]: 18.75 mm
- MIC [3, 12]: 62.5 µg/mL (≈ 349 µM)
- DDA (diameter of zone of inhibition) [4, 13]: 19.90 mm
- MBC ([5]; P. acnes NCTC 737): 62.5 µg/mL (≈ 349 µM)
- MIC/MBC ratio ([5]; P. acnes NCTC 737): 1
- DDA + lipid [6, 14]: 0.0 mm
- DDA + salt [6, 15]: 18.64 mm
- DDA (diameter of zone of inhibition) [7, 16]: 13.46 mm
- MIC [8, 17]: 15.6 µg/mL (≈ 87.1 µM)

- MIC/MBC ratio [1]: 1
- MIC ([3]; Cutibacterium acnes, NCTC737, P. acnes NCTC 737, Wilkins-Chalgren broth pH 6.0, anaerobic, 37° C., 72 hours, read-out: MIC): 7.8 µg/mL (≈ 35.1 µM)
- MIC/MBC ratio ([5]; P. acnes NCTC 737): 0.5
- MIC ([8]; Staphylococcus aureus, ATCC29213, S. aureus ATCC 29213, Mueller-Hinton broth pH 7.2, aerobic, 37° C., 24 hours, read-out: MIC): 7.8 µg/mL (≈ 35.1 µM)
Compound: CC(C)(C)c1cc(O)c(O)c(C(C)(C)C)c1 [3,5-di-t-butylcatechol]
- MBC ([1]; Staphylococcus aureus, ATCC29213, read-out: MBC): 7.8 µg/mL (≈ 35.1 µM)
- zone of inhibition at 200 µg/disc ([2]; S. aureus ATCC 29213, Tween 80 at 1% v/v, 200 μg per disc (thymoquinone 50 μg, 2,6-dimethoxy-p-benzoquinone 100 μg), read-out: DDA + lipid): 10.9 mm
- zone of inhibition at 200 µg/disc ([2]; S. aureus ATCC 29213, defibrinated horse blood 5% v/v, 200 μg per disc (thymoquinone 50 μg, 2,6-dimethoxy-p-benzoquinone 100 μg), read-out: DDA + blood): 11.9 mm
- zone of inhibition at 200 µg/disc ([2]; S. aureus ATCC 29213, sodium chloride 100 mM, 200 μg per disc (thymoquinone 50 μg, 2,6-dimethoxy-p-benzoquinone 100 μg), read-out: DDA + salt): 19.7 mm
- zone of inhibition at 200 µg/disc ([4]; ATCC29213, S. aureus ATCC 29213, unsupplemented agar, 200 μg per disc (thymoquinone 50 μg, 2,6-dimethoxy-p-benzoquinone 100 μg), read-out: DDA (diameter of zone of inhibition)): 18.8 mm
- MBC ([5]; Cutibacterium acnes, NCTC737, P. acnes NCTC 737, read-out: MBC): 15.6 µg/mL (≈ 70.2 µM)
- zone of inhibition at 200 µg/disc ([6]; P. acnes NCTC 737, Tween 80 at 1% v/v, 200 μg per disc (2,6-dimethoxy-p-benzoquinone 100 μg), read-out: DDA + lipid): 0 mm
- zone of inhibition at 200 µg/disc ([6]; P. acnes NCTC 737, sodium chloride 100 mM, 200 μg per disc (2,6-dimethoxy-p-benzoquinone 100 μg), read-out: DDA + salt): 37.3 mm
- zone of inhibition at 200 µg/disc ([7]; NCTC737, P. acnes NCTC 737, unsupplemented agar, 200 μg per disc (2,6-dimethoxy-p-benzoquinone 100 μg), read-out: DDA (diameter of zone of inhibition)): 35.9 mm

Compound: O=C1C=CC(=O)C(Cl)=C1 [2-chloro-p-benzoquinone]
- MIC/MBC ratio [1]: 1
- MBC ([1]; Staphylococcus aureus, ATCC29213): 31.2 µg/mL (≈ 219 µM)
- zone of inhibition at 200 µg/disc ([2]; read-out: DDA + blood): 17.2 mm
- zone of inhibition at 200 µg/disc ([2]; read-out: DDA + lipid): 22.8 mm
- zone of inhibition at 200 µg/disc ([2]; read-out: DDA + salt): 26.2 mm
- activity against P. acnes NCTC 737 (in words) [3]: strongly so
- MIC ([3]; Cutibacterium acnes, NCTC737, 72 h, pH 6): 62.5 µg/mL (≈ 438 µM)
- zone of inhibition at 200 µg/disc ([4]; ATCC29213, read-out: DDA (diameter of zone of inhibition)): 25.3 mm
- MBC ([5]; Cutibacterium acnes, NCTC737): 125 µg/mL (≈ 877 µM)
- MIC/MBC ratio ([5]; P. acnes NCTC 737): 0.5
- zone of inhibition at 200 µg/disc ([6]; read-out: DDA + lipid): 31.4 mm
- zone of inhibition at 200 µg/disc ([6]; read-out: DDA + salt): 31.7 mm
- effect of lipid on antimicrobial activity ([6]; P. acnes NCTC 737, activity increases in the presence of lipid): potentiated
- zone of inhibition at 200 µg/disc ([7]; NCTC737, read-out: DDA (diameter of zone of inhibition)): 25.8 mm
- MIC ([8]; Staphylococcus aureus, ATCC29213, 24 h, pH 7.2): 31.2 µg/mL (≈ 219 µM)

- MIC/MBC ratio [1]: 1
- MIC [3, 12]: 62.5 µg/mL (≈ 343 µM)
- MIC/MBC ratio ([5]; P. acnes NCTC 737): 0.5
- MIC [8, 17]: 125 µg/mL (≈ 687 µM)
Compound: Oc1c(F)c(F)c(O)c(F)c1F [tetrafluoro-p-hydroquinone]
- MBC [1]: 125 µg/mL (≈ 687 µM)
- DDA + lipid [2, 9]: 9.38 mm
- DDA + blood [2, 10]: 0.0 mm
- DDA + salt [2, 11]: 11.25 mm
- DDA (diameter of zone of inhibition) [4, 13]: 10.83 mm
- MBC ([5]; P. acnes NCTC 737): 125 µg/mL (≈ 687 µM)
- DDA + lipid [6, 14]: 0.0 mm
- DDA + salt [6, 15]: 36.35 mm
- DDA (diameter of zone of inhibition) [7, 16]: 33.86 mm
